Data published in ChEMBL document CHEMBL1772936, “Synthesis and biological activity of novel N6-substituted and 2,N6-disubstituted adenine ribo- and 3'-C-methyl-ribonucleosides as antitumor agents” (Eur J Med Chem, 2011).

Experiments:
K562 [1] = assay: Antiproliferative activity against human K562 cells after 72 hrs by MTS assay; type: functional; conditions: K562, 72 h
MCF7 = assay: Antiproliferative activity against human MCF7 cells after 72 hrs by MTS assay; type: functional; conditions: MCF7, 72 h
HeLa = assay: Antiproliferative activity against human HeLa cells after 72 hrs by MTS assay; type: functional
HT-29 = assay: Antiproliferative activity against human HT-29 cells after 72 hrs by MTS assay; type: functional; conditions: HT-29, 72 h
Caco-2 = assay: Antiproliferative activity against human Caco2 cells after 72 hrs by MTS assay; type: functional; conditions: Caco-2, 72 h
K562 [2] = assay: Antiproliferative activity against doxorubicin-sensitive human K562 cells after 72 hrs by MTS assay; type: functional; conditions: K562, 72 h, read-out: GI100
[3] = biological target: T1, Ribonucleoside-diphosphate reductase RR1 (Homo sapiens) (UniProt P23921+Q7LG56+P31350); assay: (§1) Inhibition of human recombinant ribonucleotide reductase p53R2/M1 expressed in Escherichia coli BL21 (DE3) after 30 mins by [3H]CDP reduction method
[4] = biological target: T2, Ribonucleoside-diphosphate reductase RR1 (Homo sapiens, UniProt P23921+P31350+Q7LG56); assay: as §1
T2 sequence (P23921 whole entry): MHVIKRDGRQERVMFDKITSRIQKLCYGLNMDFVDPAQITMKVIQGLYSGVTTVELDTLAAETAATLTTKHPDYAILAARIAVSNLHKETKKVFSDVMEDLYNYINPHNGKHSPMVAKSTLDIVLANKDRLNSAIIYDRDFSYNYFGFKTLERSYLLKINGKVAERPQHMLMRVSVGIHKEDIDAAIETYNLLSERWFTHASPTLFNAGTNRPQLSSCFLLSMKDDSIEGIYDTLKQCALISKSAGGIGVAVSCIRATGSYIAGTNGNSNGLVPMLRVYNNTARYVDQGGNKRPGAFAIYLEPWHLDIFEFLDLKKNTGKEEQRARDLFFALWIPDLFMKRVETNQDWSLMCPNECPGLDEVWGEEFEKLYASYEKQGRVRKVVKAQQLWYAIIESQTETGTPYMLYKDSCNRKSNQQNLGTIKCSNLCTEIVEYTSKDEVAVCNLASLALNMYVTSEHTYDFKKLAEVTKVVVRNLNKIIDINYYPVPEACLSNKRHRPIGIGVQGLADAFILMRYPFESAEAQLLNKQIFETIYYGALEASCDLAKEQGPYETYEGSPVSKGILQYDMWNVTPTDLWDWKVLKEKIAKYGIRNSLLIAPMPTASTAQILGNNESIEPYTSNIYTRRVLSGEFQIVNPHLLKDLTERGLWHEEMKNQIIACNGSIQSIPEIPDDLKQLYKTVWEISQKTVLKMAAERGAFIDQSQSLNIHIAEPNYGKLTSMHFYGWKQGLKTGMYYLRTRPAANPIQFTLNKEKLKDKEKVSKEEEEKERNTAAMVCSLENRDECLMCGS
T2 sequence (Q7LG56 whole entry): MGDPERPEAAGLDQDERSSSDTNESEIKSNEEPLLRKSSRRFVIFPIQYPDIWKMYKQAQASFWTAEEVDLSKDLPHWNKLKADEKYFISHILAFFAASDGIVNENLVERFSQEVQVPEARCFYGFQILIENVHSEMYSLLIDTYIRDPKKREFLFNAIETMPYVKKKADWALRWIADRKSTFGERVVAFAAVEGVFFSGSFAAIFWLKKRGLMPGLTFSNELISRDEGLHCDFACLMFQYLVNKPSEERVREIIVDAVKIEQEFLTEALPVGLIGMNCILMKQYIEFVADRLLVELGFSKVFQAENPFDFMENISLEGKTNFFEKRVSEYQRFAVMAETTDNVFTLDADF
T2 sequence (P31350 whole entry): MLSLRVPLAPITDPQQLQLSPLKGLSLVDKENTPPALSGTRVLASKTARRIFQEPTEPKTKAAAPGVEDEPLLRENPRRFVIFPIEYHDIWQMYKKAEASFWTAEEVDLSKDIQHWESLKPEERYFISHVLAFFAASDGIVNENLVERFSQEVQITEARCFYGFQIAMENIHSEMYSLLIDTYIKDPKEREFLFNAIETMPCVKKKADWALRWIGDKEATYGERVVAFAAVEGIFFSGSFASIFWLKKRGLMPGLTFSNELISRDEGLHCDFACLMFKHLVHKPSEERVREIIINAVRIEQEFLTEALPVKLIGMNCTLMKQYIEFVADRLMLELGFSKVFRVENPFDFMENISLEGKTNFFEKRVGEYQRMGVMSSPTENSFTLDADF

[5] = biological target: T1, Ribonucleoside-diphosphate reductase RR1 (Homo sapiens); assay: (§2) Inhibition of human recombinant ribonucleotide reductase M2/M1 expressed in Escherichia coli BL21 (DE3) after 30 mins by [3H]CDP reduction method
[6] = biological target: T2, Ribonucleoside-diphosphate reductase RR1; assay: as §2

GI50 (K562 [1]) [µM] | GI50 (MCF7) [µM] | GI50 (HeLa) [µM] | GI50 (HT-29) [µM] | GI50 (Caco-2) [µM] | inhibition [3] | IC50 [4] [µM] | inhibition [5] | IC50 [6] [µM] | SMILES | TGI (MCF7; read-out: GI100) [µM] | TGI (K562 [2]) [µM] | TGI (HeLa; read-out: GI100) [µM] | TGI (HT-29; read-out: GI100) [µM] | TGI (Caco-2; read-out: GI100) [µM]
99 | > 100 | > 100 | > 100 | > 100 |  |  |  |  | Nc1nc2c(ncn2[C@@H]2O[C@H](CO)[C@@H](O)[C@H]2O)/c(=N\O)[nH]1 |  |  |  |  | 
> 100 | > 100 | > 100 | > 100 | > 100 |  |  |  |  | C[C@@]1(O)[C@@H](CO)O[C@@H](n2cnc3c(NN)ncnc32)[C@@H]1O |  |  |  |  | 
12 | 7.9 | 16 | 18 | > 100 |  |  |  |  | NNc1ncnc2c1ncn2[C@H]1C[C@H](O)[C@@H](CO)O1 |  |  |  |  | 
> 100 | > 100 | > 100 | > 100 | > 100 |  |  |  |  | CON(C)c1ncnc2c1ncn2[C@@H]1O[C@H](CO)[C@@](C)(O)[C@H]1O |  |  |  |  | 
> 100 | 46.8 | > 100 | > 100 | 84.1 |  |  |  |  | CON(C)c1ncnc2c1ncn2[C@@H]1O[C@H](CO)[C@@H](O)[C@H]1O |  |  |  |  | 
> 100 | > 100 | > 100 | > 100 | > 100 |  |  |  |  | CO/N=c1/[nH]cnc2c1ncn2[C@@H]1O[C@H](CO)[C@@H](O)[C@H]1O |  |  |  |  | 
49 | 58 | > 100 | > 100 | > 100 |  |  |  |  | CO/N=c1/[nH]c(N)nc2c1ncn2[C@@H]1O[C@H](CO)[C@@H](O)[C@H]1O |  |  |  |  | 
31 | > 100 | 3.4 | 15 | > 100 |  |  |  |  | OC[C@H]1O[C@@H](n2cnc3/c(=N\O)[nH]cnc32)[C@H](O)[C@@H]1O |  |  |  |  | 
91 | > 100 | > 100 | > 100 | > 100 |  |  |  |  | C[C@@]1(O)[C@@H](CO)O[C@@H](n2cnc3c(NN)nc(N)nc32)[C@@H]1O |  |  |  |  | 
9.4 | 22.4 | 23.3 | 26.1 | 24.3 |  |  |  |  | C[C@@]1(O)[C@@H](CO)O[C@@H](n2cnc3c(N)ncnc32)[C@@H]1O |  |  |  |  | 
30.7 | 20.7 | 7.9 | 61.4 | 18.8 |  |  |  |  | NNc1nc(NN)c2ncn([C@@H]3O[C@H](CO)[C@@H](O)[C@H]3O)c2n1 |  |  |  |  | 

The next lines start with the molecule.

SMILES | GI50 (K562 [1]) [µM] | GI50 (MCF7) [µM] | GI50 (HeLa) [µM] | GI50 (HT-29) [µM] | GI50 (Caco-2) [µM] | inhibition [3] | IC50 [4] [µM] | inhibition [5] | IC50 [6] [µM] | TGI (MCF7; read-out: GI100) [µM] | TGI (K562 [2]) [µM] | TGI (HeLa; read-out: GI100) [µM] | TGI (HT-29; read-out: GI100) [µM] | TGI (Caco-2; read-out: GI100) [µM]
CONc1nc(N)nc2c1ncn2[C@@H]1O[C@H](CO)[C@@](C)(O)[C@H]1O | > 100 | > 100 | > 100 | > 100 | > 100 |  |  |  |  |  |  |  |  | 
NNc1ncnc2c1ncn2[C@@H]1O[C@H](CO)[C@@H](O)[C@H]1O | 0.61 | 0.35 | 0.52 | 1.44 | 1.03 | Dose-dependent effect | 244 | Dose-dependent effect | 232 | 6.1 | 2 | 5 | 8.2 | 5
C[C@@]1(O)[C@@H](CO)O[C@@H](n2cnc3c(NO)nc(N)nc32)[C@@H]1O | 94 | > 100 | > 100 | > 100 | > 100 |  |  |  |  |  |  |  |  | 
CON(C)c1nc(N)nc2c1ncn2[C@@H]1O[C@H](CO)[C@@](C)(O)[C@H]1O | > 100 | > 100 | > 100 | > 100 | > 100 |  |  |  |  |  |  |  |  | 
NNc1nc(N)nc2c1ncn2[C@@H]1O[C@H](CO)[C@@H](O)[C@H]1O | > 100 | > 100 | > 100 | > 100 | > 100 |  |  |  |  |  |  |  |  | 
CONc1ncnc2c1ncn2[C@@H]1O[C@H](CO)[C@@](C)(O)[C@H]1O | > 100 | > 100 | > 100 | > 100 | > 100 |  |  |  |  |  |  |  |  | 
C[C@@]1(O)[C@@H](CO)O[C@@H](n2cnc3c(NO)ncnc32)[C@@H]1O | > 100 | > 100 | > 100 | > 100 | > 100 |  |  |  |  |  |  |  |  | 
NNc1nc(Cl)nc2c1ncn2[C@@H]1O[C@H](CO)[C@@H](O)[C@H]1O | 87.1 | 86.2 | 86 | 86.2 | > 100 |  |  |  |  |  |  |  |  | 
